Laboratory results reported in US20070072810A1, “Agent for treating diabetes” (Takeda Pharmaceutical Company, Limited, priority 2003, published 2007).

Key:
[1] = test system: N-STZ-1.5 rat (model of type 2 diabetes with sulfonylurea secondary failure); assay: Oral glucose loading in N-STZ-1.5 rats with sulfonylurea secondary failure (Experimental Example 1); format: in vivo; details: for Increment of plasma insulin level: rats pretreated with glibenclamide for 4 weeks; for plasma glucose level-lowering effect (in words) / plasma insulin level-elevating effect (in words): type 2 diabetic rat with sulfonylurea secondary failure; for plasma glucose level-lowering effect (in words): summary of Table 1; for plasma insulin level-elevating effect (in words): summary of Table 2 and Table 3
Procedure: (§1) Streptozocin (STZ) (120 mg/kg bodyweight) was administered to a 1.5-day-old male WKY rat to obtain a type 2 diabetes model, N-STZ-1.5 rat.
N-STZ-1.5 rats (male, 24 animals) received orally glibenclamide (10 mg/kg bodyweight/day) for 4 weeks to become a model of type 2 diabetes with sulfonylurea secondary failure. Then, the rats were divided into 4 groups of Groups A to D (6 animals each).
Then, each rat received orally 1 g/kg bodyweight of glucose solution. Before administration of glucose (before and after administration of the test compound) and 10 and 60 minutes after administration of glucose solution, blood samples were taken from the caudal vein of the rat and then the plasma glucose level and the plasma insulin level were determined.
The plasma glucose level was determined by an enzymatic method using L type WakoGlu2 (trade name, Wako Pure Chemical Industries, Ltd.), and the plasma insulin level was determined by radioimmunoassay using Shionoria Insulin Kit (trade name, Shionogi & Co., Ltd.).
The increment of plasma glucose level 60 minutes after administration of glucose solution (from 0 to 60 minutes after sugar loading); the increment of plasma insulin level 10 minutes after administration of glucose solution (from before administration of the test compound to 10 minutes after sugar loading); and the increment of plasma insulin level 10 minutes after administration of glucose solution (from 0 to 60 minutes after sugar loading) are shown in Table 1, Table 2 and Table 3, respectively. The values in the tables are mean values (n=6).

[2] = test system: N-STZ-1.5 rat (type 2 diabetes model); assay: Oral glucose loading in N-STZ-1.5 rats after 4 weeks of methylcellulose (Group M) or glibenclamide (Group G) (Experimental Example 2); format: in vivo; details: for Increment of plasma insulin level / Increment of plasma glucose level: oral glibenclamide 10 mg/kg, mean, n=6; for Increment of plasma insulin level: 10 minutes after oral glucose 1 g/kg (from 0 to 60 minutes after sugar loading); for Increment of plasma glucose level: 60 minutes after oral glucose 1 g/kg; for plasma glucose level-lowering effect (in words): summary of Table 4; for plasma insulin level-elevating effect (in words): summary of Table 5
Procedure: as §1
N-STZ-1.5 rats (male, 24 animals) prepared in Experimental Example 1 were divided into 4 groups (6 animals each), of which 2 groups (hereinafter sometimes referred to as Group M) and the remaining 2 groups (hereinafter sometimes referred to as Group G) received orally a 0.5% methylcellulose suspension and glibenclamide (10 mg/kg bodyweight) respectively, for 4 weeks. After repeated administration for 4 weeks, one Group M and one Group G (control groups) received orally a 0.5% methylcellulose suspension and the other Group M and the other Group G received orally glibenclamide (10 mg/kg bodyweight).
Then, each rat received orally 1 g/kg bodyweight of glucose solution. Before administration of glucose solution and 10 and 60 minutes after the administration, blood samples were taken from the caudal vein of the rat and then the plasma glucose level and the plasma insulin level were determined.
The plasma glucose level and the plasma insulin level were determined in the same manner as in Experimental Example 1.
The increment of plasma glucose level 60 minutes after administration of glucose solution (from 0 to 60 minutes after sugar loading) and the increment of plasma insulin level 10 minutes after administration of glucose solution (from 0 to 60 minutes after sugar loading) are shown in Table 4 and Table 5, respectively. The values in the tables are mean values (n=6).

[3] = 10 minutes after oral glucose 1 g/kg (from before administration of the test compound to 10 min after sugar loading), oral glibenclamide 10 mg/kg, nateglinide 50 mg/kg, Compound A 3 mg/kg, mean, n=6
[4] = Group G (glibenclamide 10 mg/kg for 4 weeks)
[5] = Group M (0.5% methylcellulose for 4 weeks)

Structure (SMILES): CC(C)[C@H]1CC[C@H](C(=O)N[C@H](Cc2ccccc2)C(=O)O)CC1 [nateglinide]
- Increment of plasma insulin level ([1]; 10 minutes after oral glucose 1 g/kg (from 0 to 60 minutes after sugar loading), oral glibenclamide 10 mg/kg, nateglinide 50 mg/kg, Compound A 3 mg/kg, mean, n=6): 16.78 μU/ml
- Increment of plasma insulin level [1, 3]: 18.76 μU/ml
- Increment of plasma glucose level ([1]; 60 minutes after oral glucose 1 g/kg (0 to 60 min after sugar loading), rats pretreated with glibenclamide 10 mg/kg/day for 4 weeks, oral glibenclamide 10 mg/kg, nateglinide 50 mg/kg, Compound A 3 mg/kg, mean, n=6): 185.95 mg/dL
- plasma glucose level-lowering effect (in words) [1]: no plasma glucose level-lowering effect
- plasma insulin level-elevating effect (in words) [1]: hardly plasma insulin level-elevating effect

Structure (SMILES): COc1ccc(Cl)cc1C(=O)NCCc1ccc(S(=O)(=O)NC(=O)NC2CCCCC2)cc1 [glibenclamide]
- Increment of plasma insulin level [1, 3]: 18.03 μU/ml
- plasma glucose level-lowering effect (in words) [1]: no plasma glucose level-lowering effect
- plasma insulin level-elevating effect (in words) [1]: hardly plasma insulin level-elevating effect
- Increment of plasma insulin level [2, 4]: 22.76 μU/ml
- Increment of plasma glucose level [2, 4]: 180.65 mg/dL
- plasma glucose level-lowering effect (in words) ([2]; Group G): the effect was not shown
- plasma insulin level-elevating effect (in words) ([2]; Group G): the effect was not shown
- Increment of plasma insulin level [2, 5]: 49.70 μU/ml
- Increment of plasma glucose level [2, 5]: 51.72 mg/dL
- plasma glucose level-lowering effect (in words) ([2]; Group M): showed plasma glucose level-lowering effect
- plasma insulin level-elevating effect (in words) ([2]; Group M): showed plasma insulin level-elevating effect
